Source: patent publication US6670132B2, “Determining non-nucleic acid molecule binding to target by competition with nucleic acid ligand” (Gilead Sciences, Inc., priority 1999, dated 2003)
[NH2-N] = 2'-amino-2'-deoxy sugar (2'-aminopyrimidine nucleotide) (N: the base)

Legend:
[1] = test system: wheat germ agglutinin (WGA); assay: Wheat germ agglutinin aptamer competition assay (displacement of 32P-labeled 11.20, nitrocellulose filter binding); design: species or system Triticum vulgare; details: 10 nM 32P end-labeled 11.20, 10 nM WGA, room temperature
Protocol: Small molecule oligosaccharides were screened for their ability to compete with WGA aptamer 11.20 for binding to wheat germ agglutinin protein. The small molecule (or cold 11.20) competitors at varying concentrations were mixed with the 5′-32P end-labeled 11.20 ligand at room temperature. Then WGA was added to the mixture and allowed to equilibrate for 60 minutes at room temperature. The competition mixtures (90 μL volume) all had 32P end-labeled 11.20 at 10 nM, WGA at 10 nM and were in 25 mM Hepes, 137 mM NaCl, 2.7 mM KCl, 1 mM MgCl2, 1 mM CaCl2, 0.067% human serum albumin (HSA), at pH 7.4 (HBSMC). Aptamer bound to WGA was separated from free aptamer by filtration through pre-washed […] nitrocellulose membrane filters. Filters were washed with 5 mL HBSMC at room temperature. The filters were placed in tubes with scintillant and the radioactivity counted to quantitate the fraction of 32P end-labeled 11.20 bound at each competitor concentration.
Competition experiments were analyzed by the following equation to determine the concentration of free protein, [PF], as a function of the total concentration of competitor added, [CT]:
[PF]=[PT]/(1+KdR[RT]/(1+KdR[PF])+KdC[CT]/(1+KdC[PF])) (1)
(§1) where KdR is the binding constant of species R to the protein (assuming 1:1 stoichiometry) and KdC is the binding constant of species C, the competitor, to the protein (assuming 1:1 stoichiometry). Equation (1) was solved to self-consistency of [PF] to a precision of 1×10^−15. Using these values of [PF], the concentration of protein-ligand complex [PR] as a function of [CT] was determined by the following equation:
[PR]=KdR[RT][PF](1+KdC[PF]) (2)
Since the experimental data are expressed as %[PR], the calculated concentration of [PR] was normalized by [PR0], the [PR] in the absence of the competitor. [PR0] was obtained by solving equation (1) where [CT]=0. The maximum (M) and minimum (B) %[PR] were allowed to float during the analysis as shown in the following equation:
%[PR]=[PR]/[PR0](M−B)+B (3)
A non-linear least-squares fitting procedure was used as described by Bates and Watts (Bates, D. M. and Watts, D. G. 1988 in Non-Linear Regression Analysis and its Applications, D. M. Bates and D. G. Watts editors, John Wiley & Sons, NY, N.Y.). […]
A group of carbohydrates related to GlcNAc3 were tested for their ability to displace radiolabeled 11.20 from WGA. […] Structures of competitors used in this assay are shown in FIGS. 3A-C along with the Kdc values calculated from the competition profiles (FIGS. 4A-D) according to equations (1)-(3). […]

[2] = target: T1, PDGF-BB (Homo sapiens, UniProt P01127); assay: PDGF aptamer competition assay (displacement of 32P-labeled 20tb, nitrocellulose filter binding); details: competition with 1.16 nM 32P end-labeled 20tb, 1.0 nM PDGF-BB, 37° C.; calculated from competition profiles by equations (1)-(3); read-out: KdC
T1 construct: purchased R&D Systems (Minneapolis, Minn.)
T1 sequence (P01127 82-190 limits assumed): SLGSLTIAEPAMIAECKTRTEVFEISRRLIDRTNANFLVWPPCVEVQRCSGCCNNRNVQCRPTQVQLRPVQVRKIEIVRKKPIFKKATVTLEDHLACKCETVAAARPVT
Protocol: Small molecule oligoanions were screened for their ability to compete with PDGF aptamer 20tb for binding to the PDGF-BB protein. The small molecule (or cold 20tb) competitors at varying concentrations were mixed with the 5′-^32P end-labeled 20tb ligand at room temperature. PDGF was then added to the mixture and allowed to equilibrate for 45 minutes at room temperature followed by 15 minutes at 37° C. The competition mixtures (90 μL volume) all had ^32P end-labeled 20tb at 1.16 nM, PDGF-BB at 1 nM and were in 25 mM Hepes, 137 mM NaCl, 2.7 mM KCl, 1 mM MgCl2, 1 mM CaCl2, 0.067% human serum albumin (HSA), at pH 7.4 (HBSMC). […] The filters were placed in tubes with scintillant and the radioactivity counted to quantitate the fraction of ^32P end-labeled 20tb bound at each competitor concentration.
Competition experiments were analyzed by the following equation to determine the concentration of free protein, [PF], as a function of the total concentration of competitor added, [CT]: […]
as §1, with “Equation (1) was solved to self-consistency of [PF] to a precision of 1×10^−15.” left out, “equation: […]” for “equation:”

[3] = test system: WGA; details: cited from earlier work; for concentration required to completely inhibit WGA-mediated agglutination: tested previously (U.S. Pat. No. 5,780,228)
[4] = target: T1, PDGF-BB; assay: Binding of PDGF aptamers to PDGF-BB
From the text: For the PDGF competition assay, a DNA PDGF aptamer sequence identified previously was used. The aptamer and methods used herein are described in detail in Example One. Aptamers obtained in this experiment bind preferentially to the B-chain of PDGF in a manner that inhibits receptor binding and PDGF-BB-induced DNA synthesis in vitro. Using photo-crosslinking experiments, it has been shown that a specific nucleotide in the aptamer interacts with phenylalanine-84 of the PDGF B-chain which is located near the region of PDGF know to be involved in receptor binding (Green, L. S. et al. (1996) Biochemistry 35, 14413-24). […] Thus, the aptamer used for competition binding experiments, 20tb, is a 27-mer that binds to PDGF-BB with a Kd of 0.5 nM.
A panel of oligoanions, mostly in the naphthalene sulfonic acid class, were screened for their ability to displace a ^32P-radiolabeled aptamer (20tb) from PDGF-BB. […] A nitrocellulose filter binding method was used to separate bound from unbound aptamer. Structures of competitors used in this competition assay are shown in FIGS. 1A-C along with the Kdc values calculated form the competition profiles (FIG. 2) according to equations (1)-(3) (Experimental Methods). For all competition experiments, the concentration of the ^32P end-labeled 20tb aptamer and PDGF-BB was 1.16 nM and 1.0 nM, respectively. […]

With `CC(=O)N[C@H]1[C@H](O[C@H]2[C@H](O)[C@@H](NC(C)=O)C(O)O[C@@H]2CO)O[C@H](CO)[C@@H](O)[C@@H]1O` (some centres unmarked) [(GlcNAc)2, N,N′-diacetylchitobiose] the “ability to displace radiolabeled 11.20 from WGA” value (from here on “ability”) [1] was “best ligands”.

With `CC(=O)N[C@H]1[C@H](O[C@H]2[C@H](O)[C@@H](NC(C)=O)C(O)O[C@@H]2CO)O[C@H](CO)[C@@H](O[C@@H]2O[C@H](CO)[C@@H](O[C@@H]3O[C@H](CO)[C@@H](O)[C@H](O)[C@H]3NC(C)=O)[C@H](O)[C@H]2NC(C)=O)[C@@H]1O` (some centres unmarked) [(GlcNAc)4, N,N′,N″,N′″-tetraacetyltetraose] the “ability” value [1] was “best ligands”.

In the case of `O=S(=O)(O)c1ccc(N=Nc2c(S(=O)(=O)O)cc3cc(S(=O)(=O)O)cc(O)c3c2O)cc1` [SPADNS, 2-(4-sulfophenylazo)-1,8-dihydroxy-3,6-naphthalene disulfonic acid], the Kd [2] is reported as 19 µM.

Work on `O=S(=O)(O)c1ccc2c(S(=O)(=O)O)cc(S(=O)(=O)O)cc2c1` [naphthalene 1,3,6-trisulfonic acid] yielded a Kd [2] of 870 µM.

For `CC(=O)N[C@H]1C(O)O[C@H](CO)[C@@H](O)[C@@H]1O` (stereo partly drawn) [GlcNAc, N-acetyl-D-glucosamine], the “ability” value [1] is given as “not a competitor” and the “concentration required to completely inhibit WGA-mediated agglutination” value [3] is given as 800 µM.

“20tb: synthetic 27-mer DNA oligo, truncated PDGF aptamer, 5′GGGCCGTTTCGGGTTACTTTTAGTCCC (DNA, backbone not given here)” showed a Kd ([4]; aptamer binding to PDGF-BB) of 0.5 nM.

Molecule “20ta: synthetic 33-mer DNA oligo, PDGF aptamer, 5′CGGGCGCGTTCTTCGTGGTTACTTTTAGTCCCG (DNA, backbone not given here)” has a Kd ([4]; aptamer binding to PDGF) of 0.05 nM.

In the case of `CC(=O)N[C@H]1[C@H](O[C@H]2[C@H](O)[C@@H](NC(C)=O)C(O)O[C@@H]2CO)O[C@H](CO)[C@@H](O[C@@H]2O[C@H](CO)[C@@H](O)[C@H](O)[C@H]2NC(C)=O)[C@@H]1O` (some centres unmarked) [(GlcNAc)3, N,N′,N″-triacetylchitotriose], the “ability” value [1] is given as “best ligands” and the “concentration required to completely inhibit WGA-mediated agglutination” value [3] is given as 18.5 µM.

B1: 11.20: 98-mer RNA transcript with 2′aminopyrimidine bases, WGA aptamer (nucleic acid)
chain: GGGAAAAGCGAAUCAUACACAAGAUUGGUCGUACUGGACAGAGCCGUGGUAGAGGGAUUGGGACAAAGUGUCAGCUCCGCCAGAGACCAACCGAGAA
modifications: [NH2-N] at CU, RNA at AG, all phosphodiester, methylation of C not given here
In the case of B1, the “inhibition of WGA-mediated agglutination of sheep erythrocytes” value ([3]; as described in U.S. Pat. No. 5,780,228) is given as “potently inhibited”.
